What was measured:
MTDH-SND1 interaction = target: T1, MTDH-SND1 interaction (Homo sapiens, UniProt Q7KZF4); experiment: Co-immunoprecipitation (Co-IP) in SCP28 lysates with anti-MTDH antibody, Western blot for SND1; format: binding; settings: 500 μM, SCP28 lysate
T1 construct: endogenous in cells; host or cells: SCP28 cells (lysate)
T1 sequence (Q7KZF4 2-910 limits assumed): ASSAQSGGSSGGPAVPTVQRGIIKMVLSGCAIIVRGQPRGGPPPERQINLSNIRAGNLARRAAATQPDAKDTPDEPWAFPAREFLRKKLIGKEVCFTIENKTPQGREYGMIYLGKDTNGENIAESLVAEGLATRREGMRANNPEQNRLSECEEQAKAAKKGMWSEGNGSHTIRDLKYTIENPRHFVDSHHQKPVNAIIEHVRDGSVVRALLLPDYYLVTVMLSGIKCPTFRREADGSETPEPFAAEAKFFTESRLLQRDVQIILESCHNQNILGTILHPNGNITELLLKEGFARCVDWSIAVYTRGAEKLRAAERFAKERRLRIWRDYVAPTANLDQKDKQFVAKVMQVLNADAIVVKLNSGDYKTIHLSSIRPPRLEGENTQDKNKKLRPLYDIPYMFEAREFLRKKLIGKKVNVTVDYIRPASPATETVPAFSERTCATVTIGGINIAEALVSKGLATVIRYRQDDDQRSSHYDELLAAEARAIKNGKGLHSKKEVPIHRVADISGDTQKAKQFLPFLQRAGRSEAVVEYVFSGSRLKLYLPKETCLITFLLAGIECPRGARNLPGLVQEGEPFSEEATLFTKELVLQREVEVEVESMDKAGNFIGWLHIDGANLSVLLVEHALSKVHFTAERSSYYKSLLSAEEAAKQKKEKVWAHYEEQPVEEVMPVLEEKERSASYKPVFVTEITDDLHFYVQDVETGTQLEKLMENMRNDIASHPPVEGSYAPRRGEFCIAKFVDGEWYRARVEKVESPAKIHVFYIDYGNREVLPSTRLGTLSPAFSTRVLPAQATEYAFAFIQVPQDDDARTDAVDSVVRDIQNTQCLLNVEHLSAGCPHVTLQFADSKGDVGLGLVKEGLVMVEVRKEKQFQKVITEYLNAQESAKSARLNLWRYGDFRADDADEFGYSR
Method: FIG. 3F, SCP28 cells grown confluent in each 10-cm dish were lysed with 1 ml IP lysis buffer. 500 μM of the compounds were added into each 1 ml of the samples and IP lysis buffer with 2 μg of anti-MTDH antibody. Western blot was then performed to detect SND1 that binds to MTDH.
FIG. 10E, Schematic diagram of Co-IP based confirmation of MTDH-SND1 inhibitory compounds (left). SCP28 cells were lysed for IP assay.2 μg of MTDH antibody together with 500 μM of MTDH wild type (Pep-WT) or mutant (Pep-MT) peptides were added into each 1 ml of samples. Red star indicates wild type MTDH peptide competing off SND1 that binds to MTDH.
Co-immunoprecipitation assay (Co-IP), which is a commonly used standard test to determine protein-protein interaction, was next employed to validate the candidates. Lysates of breast cancer cell line SCP28, a single cell-derived subline from the MDA-MB-231 TNBC cell line^25, was immunoprecipitated with anti-MTDH antibody alone or together with inhibitors (FIG. 3F and FIG. 10E). The samples were then incubated with Protein-A/G beads to pull down MTDH, followed by Western blot analysis to detect SND1. […] Using multiple screening and validation platforms, two classes of compounds, C26s and C32s, were obtained that inhibit MTDH-SND1 interaction.
Immunoprecipitation (IP) and western blotting (WB) analysis. For IP experiment, samples were prepared as previously described^32. 100 μl of the supernatant was transferred to a new tube as input, and the rest was incubated with 2 μg of IgG, anti-Myc (Santa Cruz, SC-40), or anti-MTDH (ThermoFisher, 40-6500) (as indicated in each experiment) overnight at 4° C. (small chemical compounds may be added at this step as indicated in each experiment). The rest standard IP procedures were performed as previously noted^32. […]

Caco-2 cells = experiment: Caco-2 cell based permeability test; format: in vitro ADME; settings: 5 μM, A-to-B and B-to-A, 120 min
Method: FIG. 11A, Caco-2 cells were employed to test cell permeability of C26-A2 and A6. 5 μM of compounds were dosed on both apical side (A-to-B) and basolateral side (B-to-A). Samples were taken from the donor and receiver chambers at 120 min after treatment. All samples were assayed by LC-MS/MS using electrospray ionization. The apparent permeability (Papp) and percent recovery were calculated.
C26s cell permeability test. The cell permeability of C26-A2 and A6 were determined with monolayer of Caco-2 cells with both the apical-to-basolateral (A-to-B) and basolateral-to-apical (B-to-A) directions by Absorption Systems LLC Detailed protocol can be found in previous studies.

[1] = target: T2, linked-luc in SCP28 cells (Photinus pyralis, UniProt P08659, INS416[…]); experiment: Linked-luciferase reporter in living SCP28 cells; format: cell-based; settings: multiple doses, 30 min after treatment
T2 construct: NLuc and CLuc were linked with 3 repeats of GGGS, flanked by the same restriction sites, and inserted into the same vectors; expressed in transfected cells; host or cells: SCP28 cells stably transduced with pRVPTO retroviral vector
Method: FIG. 4A, SCP28 cells that stably express split- or linked-luciferase components were treated with multiple doses of C26-A2 or C26-A6. 30 minutes (min) after treatment, culture media was removed and the luciferase activity in the cells was measured. Data represent mean±SEM. n=3 independent experiments.
C26s inhibit breast cancer progression and metastasis. C26-A2 and A6 were picked for the functional test. To this end, it was tested whether C26-A2 and A6 could inhibit breast cancer progression. […] Next, SCP28 breast cancer cells that were engineered to express split- or linked-luciferase reporter were treated with C26-A2 or A6.

T2 sequence (P08659 with tags, fused parts or gaps INS416[withheld]): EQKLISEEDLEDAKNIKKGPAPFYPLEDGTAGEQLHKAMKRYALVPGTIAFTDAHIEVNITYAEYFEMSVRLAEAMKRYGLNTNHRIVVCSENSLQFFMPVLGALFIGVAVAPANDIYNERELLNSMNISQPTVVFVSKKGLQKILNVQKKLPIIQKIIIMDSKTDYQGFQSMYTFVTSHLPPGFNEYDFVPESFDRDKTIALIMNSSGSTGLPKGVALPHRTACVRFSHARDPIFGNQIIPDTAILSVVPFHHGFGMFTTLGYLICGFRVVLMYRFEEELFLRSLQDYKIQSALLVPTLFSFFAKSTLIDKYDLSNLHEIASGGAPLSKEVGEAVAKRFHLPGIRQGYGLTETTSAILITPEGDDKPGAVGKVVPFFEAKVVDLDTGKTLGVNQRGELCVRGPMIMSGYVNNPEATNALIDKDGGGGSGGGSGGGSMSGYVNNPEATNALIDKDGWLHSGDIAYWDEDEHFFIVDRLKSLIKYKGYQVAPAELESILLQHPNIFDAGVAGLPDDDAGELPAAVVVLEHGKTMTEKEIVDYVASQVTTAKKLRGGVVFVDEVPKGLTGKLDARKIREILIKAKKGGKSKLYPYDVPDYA

SMILES | MTDH-SND1 interaction (SND1 that binds to MTDH, Co-IP) (MTDH-SND1 interaction) | cell permeability (Caco-2 cells) | linked-luc activity in living cells [1]
COc1ccc(Cl)cc1S(=O)(=O)Nc1cccn2ncnc12 [Analog C26-A2] | strongest inhibitory effects | highly permeable | without significantly affecting linked-luc activity
COc1ccc(Cl)cc1S(=O)(=O)Nc1cccn2nc(C)nc12 [Analog C26-A6] | strongest inhibitory effects | highly permeable | without significantly affecting linked-luc activity
